{"source": "patent US5145783A", "about": "“Glyphosate-tolerant 5-endolpyruvyl-3-phosphoshikimate synthase” (Monsanto Company, priority 1990, dated 1992)", "key": {"[1]": {"system": "MP4 cells (Mitchell diploid petunia)", "assay": "MP4 suspension culture in MS media containing glyphosate", "assay_type": "cell-based", "settings": "0.5 mM glyphosate (sodium salt) in MS media, estimated; read-out: cells which survived, share of the starting population", "description": "The starting cell line, designated as the MP4 line, was derived from a Mitchell diploid petunia (see e.g., Ausubel 1980). The MP4 cells were suspended in Murashige and Skoog (MS) culture media, (GIBCO, Grand Island, N.Y.) All transfers involved dispensing 10 ml of suspension cultures into 50 ml of fresh media. Cultivation periods until the next transfer ranged from 10 to 14 days, and were based on visual indications that the culture was approaching saturation.\nApproximately 10 ml of saturated suspension culture (containing about 5×10^6 cells) were transferred into 50 ml of MS media containing 0.5 mM glyphosate. The sodium salt of glyphosate was used throughout the experiments described herein. The large majority of cells were unable to reproduce in the presence of the glyphosate. The cells which survived (estimated to be less than 1% of the starting population) were cultured in 0.5 mM glyphosate and transferred to fresh media containing glyphosate every 10 to 14 days."}, "[2]": {"molecular_target": "petunia EPSP synthase with alanine for the first glycine of the conserved region (Petunia hybrida, UniProt P11043, G170A)", "sequence (P11043 73-516 G170A)": "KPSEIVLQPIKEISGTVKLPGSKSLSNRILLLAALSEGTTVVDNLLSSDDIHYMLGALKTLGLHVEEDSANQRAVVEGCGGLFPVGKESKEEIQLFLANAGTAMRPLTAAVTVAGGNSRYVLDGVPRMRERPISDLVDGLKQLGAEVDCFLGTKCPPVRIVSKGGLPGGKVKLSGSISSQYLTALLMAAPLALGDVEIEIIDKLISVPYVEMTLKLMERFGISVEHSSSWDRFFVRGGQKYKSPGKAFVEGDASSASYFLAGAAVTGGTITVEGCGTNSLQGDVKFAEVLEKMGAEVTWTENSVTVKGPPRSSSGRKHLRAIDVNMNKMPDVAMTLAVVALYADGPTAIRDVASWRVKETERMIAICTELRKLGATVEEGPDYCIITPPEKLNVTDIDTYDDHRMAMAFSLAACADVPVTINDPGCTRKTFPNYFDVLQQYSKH", "assay": "Glyphosate sensitivity of petunia EPSP synthase with alanine for the first glycine of the conserved region", "assay_type": "biochemical", "settings": "alanine inserted for the first glycine of the conserved region", "source_text": "The EPSP synthase sequences shown in FIG. 2 represent a broad evolutionary range of source materials for EPSP synthases. […] However, those skilled in the art will recognize that a particular EPSP synthase may be produced by and isolated from another source material which may not have the exact sequence of the conserved region."}, "[3]": {"molecular_target": "T1, glyphosate-tolerant EPSP synthase (gly(101)-ala) of tomato (Solanum lycopersicum, UniProt P10748, G177A)", "T1 construct": "ATG translational initiation codon at the site predicted to be the start of the mature enzyme for in vitro expression in E. Coli; initiator methionine (ATG in an engineered NcoI site) (N); made in house; host or cells: E. coli SR481 (aroA mutant) harboring pMON9729, desalted cell extract", "T1 sequence (P10748 77-520 G177A)": "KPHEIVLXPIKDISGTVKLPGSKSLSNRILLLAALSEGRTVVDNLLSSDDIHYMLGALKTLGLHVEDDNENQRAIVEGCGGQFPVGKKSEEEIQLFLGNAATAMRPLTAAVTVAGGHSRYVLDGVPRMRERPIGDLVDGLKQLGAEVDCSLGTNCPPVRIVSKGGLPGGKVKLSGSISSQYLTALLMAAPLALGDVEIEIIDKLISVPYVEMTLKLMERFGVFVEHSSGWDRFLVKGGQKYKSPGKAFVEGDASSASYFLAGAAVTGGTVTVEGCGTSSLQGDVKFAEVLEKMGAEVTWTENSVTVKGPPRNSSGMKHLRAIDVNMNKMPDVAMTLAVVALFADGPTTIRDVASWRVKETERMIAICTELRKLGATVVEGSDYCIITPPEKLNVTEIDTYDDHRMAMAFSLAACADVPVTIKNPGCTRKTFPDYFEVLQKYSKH", "assay": "EPSP synthase activity assay, extracts of E. coli SR481 harboring pMON9729", "assay_type": "biochemical", "description": "E. coli SR481 cells harboring pMON9719 or pMON9729 were grown under conditions which induce the expression of the RecA promoter. The cells were lysed and the extracts were assayed for EPSP synthase activity.\nSpecifically, the bacterial cell paste was washed twice with 0.9% saline, suspended in buffer (100 mM Tris-HCl, 5 mM dithiothreitol, 1 mM EDTA, 10% glycerol and 1 mM benzamidine HCl) passed twice through the French Pressure Cell at 1000 psi. The cell abstract was separated from the cells by centrifuging at 15,000×gravity for 10 mins. at 5° C. It was desalted using Sephadex G-50 (Pharmacia, Piscataway, N.J.). The desalted extract was assayed for EPSP synthase activity as follows:\nTo an assay mix (40 μl) containing shikimate-3-phosphate (2 mM), ^14 C-phosphoenolpyruvate (1 mM, 1.2 mCi/mmol), ammonium molybdate (0.1 mM), potassium fluoride (5 mM), in 50 mM HEPES-KOH, pH 7, was added 10 μl of the extract and incubated at 25° C. for 2 mins. […] The radioactivity of the eluent was monitored using a Radiometric Flo-One Beta Instrument. […] The EPSP synthase activity was determined by measurement of the conversion of ^14 C-PEP to ^14 […], both of which are resolved under the above conditions of chromatography. The protein content of the extract was determined by the method of Bradford (Biorad Labs, Calif.). […]"}, "wild type callus": {"system": "wild type callus", "assay": "Growth of wild type callus on glyphosate", "assay_type": "cell-based, Brassica napus", "settings": "0.5 mM glyphosate"}, "[4]": {"molecular_target": "T2, wild-type maize EPSP synthase (Zea mays, UniProt A0A1D6NVZ6)", "T2 sequence (A0A1D6NVZ6 1-506)": "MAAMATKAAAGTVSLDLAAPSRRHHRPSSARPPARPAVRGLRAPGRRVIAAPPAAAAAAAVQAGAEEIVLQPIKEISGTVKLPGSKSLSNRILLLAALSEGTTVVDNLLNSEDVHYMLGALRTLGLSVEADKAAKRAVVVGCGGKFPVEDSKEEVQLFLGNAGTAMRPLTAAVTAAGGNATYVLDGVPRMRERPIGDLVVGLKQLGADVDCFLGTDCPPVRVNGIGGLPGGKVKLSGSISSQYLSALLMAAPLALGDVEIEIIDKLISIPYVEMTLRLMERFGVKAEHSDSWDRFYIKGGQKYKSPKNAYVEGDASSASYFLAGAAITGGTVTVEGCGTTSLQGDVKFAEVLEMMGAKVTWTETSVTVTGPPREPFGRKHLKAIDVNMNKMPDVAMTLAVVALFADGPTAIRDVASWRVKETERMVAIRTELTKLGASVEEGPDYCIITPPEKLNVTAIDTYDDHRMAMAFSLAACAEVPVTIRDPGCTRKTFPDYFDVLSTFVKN", "assay": "EPSP synthase activity of in vitro translation product of pMON9951", "assay_type": "biochemical", "settings": "1.0 mM glyphosate", "description": "(§1) The linearized plasmid DNA was transcribed in vitro with T7 polymerase essentially as described by Krieg et al. 1984. The standard reaction buffer contained 40 mM Tris-HCl (pH 7.9), 6 mM MgCl2, 10 mM dithiothreitol, 2 mM spermidine, 80 U RNAsin ribuonuclease inhibitor, 0.5 mM each of ATP, GTP, CTP and UTP, in a final reaction volume of 100 μl. The final RNA pellet was resuspended in 20 μl of sterile water and stored at -80° C. A standard translation reaction contained 100 μl of nuclease-treated rabbit reticulocyte lysate, 5.7 μl of a 19-amino acid mixture (minus methionine at 1 mM each, 5.7 μl of RNA (total RNA transcripts derived from 0.63 μg of plasmid DNA), 16 μl RNAsin (20U/μl) ribonuclease inhibitor, and 58.3 μl of [^35 S] methionine (14-15 mCi/ml). The in vitro translation products were stored frozen at -80 ° C.\n(§2) The products of the in vitro translation were then assayed for EPSP synthase activity as described herein."}, "[5]": {"molecular_target": "T3, mutant maize pre-EPSP synthase (alanine for second glycine) (Zea mays, UniProt A0A1D6NVZ6, G163A)", "T3 construct": "full-length cDNA pre-enzyme with chloroplast transit peptide, T7 in vitro transcription, rabbit reticulocyte lysate translation", "T3 sequence (A0A1D6NVZ6 entry or part of it G163A)": "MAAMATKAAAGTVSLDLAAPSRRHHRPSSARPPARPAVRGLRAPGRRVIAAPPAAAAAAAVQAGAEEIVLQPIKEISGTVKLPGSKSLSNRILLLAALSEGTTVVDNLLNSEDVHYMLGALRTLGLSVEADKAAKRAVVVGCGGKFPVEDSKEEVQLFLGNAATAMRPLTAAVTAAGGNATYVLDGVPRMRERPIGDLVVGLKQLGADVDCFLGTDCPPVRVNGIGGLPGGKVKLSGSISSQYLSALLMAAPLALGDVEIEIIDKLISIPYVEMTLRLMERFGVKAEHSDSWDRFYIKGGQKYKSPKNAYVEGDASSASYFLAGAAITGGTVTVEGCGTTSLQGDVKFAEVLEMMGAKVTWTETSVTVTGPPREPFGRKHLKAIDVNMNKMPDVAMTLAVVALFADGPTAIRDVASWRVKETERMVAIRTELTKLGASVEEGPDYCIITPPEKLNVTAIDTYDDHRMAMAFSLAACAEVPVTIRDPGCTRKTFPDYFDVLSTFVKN", "assay": "EPSP synthase activity of in vitro translation product of pMON9960", "assay_type": "biochemical", "description": "as §1, §2"}, "[6]": {"molecular_target": "T4, glyphosate-tolerant petunia EPSP synthase (alanine for glycine at position 101) (Petunia hybrida, UniProt P11043, G173A)", "T4 construct": "made in house; host or cells: E. coli (overproducing), extract", "T4 sequence (P11043 73-516 G173A)": "as the sequence (P11043 73-516 G170A) above, with A98G, G101A counted along it", "assay": "EPSP synthase inhibition, petunia enzyme carrying the alanine for glycine substitution", "assay_type": "biochemical", "source_text": "The EPSP synthase in the extracts was further characterized by titrating the resistance to glyphosate."}}, "data": [{"smiles": "O=C(O)CNCP(=O)(O)O", "note": "[glyphosate, N-phosphonomethylglycine]", "values": [{"measurement": "viability at 500 µM", "setting": "[1]", "result": "< 1", "unit": "%"}, {"measurement": "change in glyphosate sensitivity versus wild-type petunia EPSP synthase", "setting": "[2]", "result": "no attendant changes in glyphosate sensitivity"}, {"measurement": "IC50", "setting": "[3]", "result": 32, "unit": "mM"}, {"measurement": "effect on callus", "setting": "wild type callus", "result": "kills"}, {"measurement": "EPSP synthase activity in the presence of glyphosate", "setting": "[4]", "result": "no activity was detected"}, {"measurement": "inhibition of EPSP synthase activity", "setting": "[5]; 1 mM glyphosate, product of pMON9960", "result": "only slightly inhibited"}, {"measurement": "EPSP synthase activity in the presence of glyphosate", "setting": "[5]; 100 mM glyphosate, product of pMON9960", "result": "still showing detectable activity"}, {"measurement": "inhibition at 10000 µM", "setting": "[5]; read-out: inhibition of EPSP synthase activity", "result": 25, "unit": "%"}, {"measurement": "IC50", "setting": "[6]", "result": 16, "unit": "mM"}]}]}
